Measurements as given in US12404239B2, “Modulators of BCL6 as ligand directed degraders” (Celgene Corporation, priority 2022, dated 2025).
Each block holds one compound with its values, some of them ahead of it.

Target: T1, BCL6 (Homo sapiens, UniProt P41182)
T1 construct: HiBiT-tag knocked into endogenous BCL6 locus using CRISPR; endogenous in cells; host or cells: DHL-4_BCL6_HiBiT cells (CRISPR knock-in)
Experiment: BCL6_HiBiT degradation assay (2 h)
Format: cell-based
Conditions: DHL-4_BCL6_HiBiT cells, read-out: YCon (% remaining maximal effect)
Method: A DHL-4 cell line with HiBiT-tag knocked into endogenous BCL6 locus using CRISPR was generated. The DHL-4_BCL6_HiBiT cells were dispensed into 384-well plates (Corning no. 3570) that were pre-spotted with compounds. Compounds were dispensed by an acoustic dispenser (ATS acoustic transfer system from EDC Biosystems) into a 384-well plate in a 10-point dose response curve using 3-fold dilutions starting at 1-10 μM and going down to […]. 25 μL of media (RPMI-1640+10% heat inactivated FBS+1×Pen/Strep) containing 2500 of DHL-4 was dispensed per well. Assay plates were incubated at 37° C. with 5% CO2 for 2 hours. After incubation, 25 μL of the Nano-Glo HiBiT lytic detection working solution (Promega, catalogue no. N3040, Madison, WI) was added to each well and incubated at room temperature for 15-30 min, protected from light. After 30 min, luminescence was read on an Envision or PHERAstar luminescence reader. To determine the EC50 value (the half-maximum effective concentration) and the level of the gradation (Yconstant) of a BCL6 degrader, luminescent signal normalized by DMSO control (Y) and compound concentration (x) was fitted using a four-parameter dose-response model (Y=(A+((B−A)/1+((C/x)^D) in Dotmatics. Fitted value C is the degradation EC50 and the minimum value A is the Y constant.
The degradation of BCL6 at 2 h in DHL-4 results are shown in Table 5, where EC50 is the half maximal effect and Ycon is the % remaining maximal effect.

Structure (SMILES): CN1C(=O)Cc2cc(Nc3nc(N4CCC(Nc5ccc6c(C7CCC(=O)NC7=O)nn(C)c6c5)CC45CCC5)ncc3Cl)ccc21 (stereo not shown) [Example 1, 3-(6-((5-(5-chloro-4-((1-methyl-2-oxoindolin-5-yl)amino)pyrimidin-2-yl)-5-azaspiro[3.5]nonan-8-yl)amino)-1-methyl-1H-indazol-3-yl)piperidine-2,6-dione]
Percent BCL6 remaining at maximal degradation (Ycon): 20 to 60%

Structure (SMILES): CN1C(=O)Cc2cc(Nc3nc(N(C)C4CCN(c5ccc6c(C7CCC(=O)NC7=O)nn(C)c6c5)C5(CCC5)C4)ncc3Cl)ccc21 (stereo not shown) [Example 2, 3-(6-(8-((5-chloro-4-((1-methyl-2-oxoindolin-5-yl)amino)pyrimidin-2-yl)(methyl)amino)-5-azaspiro[3.5]nonan-5-yl)-1-methyl-1H-indazol-3-yl)piperidine-2,6-dione]
Percent BCL6 remaining at maximal degradation (Ycon): < 20%

Structure (SMILES): CN1C(=O)Cc2cc(Nc3nc(N(C)[C@H]4CC[C@H](Nc5ccc6c(C7CCC(=O)NC7=O)nn(C)c6c5)CC4)ncc3Cl)ccc21 (stereo partly drawn) [Example 3, 3-(6-(((trans)-4-((5-chloro-4-((1-methyl-2-oxoindolin-5-yl)amino)pyrimidin-2-yl)(methyl)amino)cyclohexyl)amino)-1-methyl-1H-indazol-3-yl)piperidine-2,6-dione]
Percent BCL6 remaining at maximal degradation (Ycon): > 60%

Structure (SMILES): C[C@@H]1C[C@H](N(C)c2ncc(Cl)c(Nc3ccc4c(c3)CC(=O)N4C)n2)CCN1c1ccc2c(C3CCC(=O)NC3=O)nn(C)c2c1 (stereo partly drawn) [Example 4, 3-(6-((2R,4R)-4-((5-chloro-4-((1-methyl-2-oxoindolin-5-yl)amino)pyrimidin-2-yl)(methyl)amino)-2-methylpiperidin-1-yl)-1-methyl-1H-indazol-3-yl)piperidine-2,6-dione]
Percent BCL6 remaining at maximal degradation (Ycon): < 20%

Structure (SMILES): CC1CN(c2ncc(Cl)c(Nc3ccc4c(c3)CC(=O)N4C)n2)CC(=O)N1c1ccc2c(C3CCC(=O)NC3=O)nn(C)c2c1 (stereo not shown) [Example 5, 3-(6-(4-(5-chloro-4-((1-methyl-2-oxoindolin-5-yl)amino)pyrimidin-2-yl)-2-methyl-6-oxopiperazin-1-yl)-1-methyl-1H-indazol-3-yl)piperidine-2,6-dione]
Percent BCL6 remaining at maximal degradation (Ycon): > 60%

Structure (SMILES): CN1C(=O)Cc2cc(Nc3nc(N(C)C4CCN(c5ccc6c(C7CCC(=O)NC7=O)nn(C)c6c5)CC4)ncc3Cl)ccc21 (stereo not shown) [Example 6, 3-(6-(4-((5-Chloro-4-((1-methyl-2-oxoindolin-5-yl)amino)pyrimidin-2-yl)(methyl)amino)piperidin-1-yl)-1-methyl-1H-indazol-3-yl)piperidine-2,6-dione]
Percent BCL6 remaining at maximal degradation (Ycon): > 60%

Structure (SMILES): CN1C(=O)Cc2cc(Nc3nc(N4CCC(N(C)c5ccc6c(C7CCC(=O)NC7=O)nn(C)c6c5)CC4)ncc3Cl)ccc21 (stereo not shown) [Example 7, 3-(6-((1-(5-chloro-4-((1-methyl-2-oxoindolin-5-yl)amino)pyrimidin-2-yl)piperidin-4-yl)(methyl)amino)-1-methyl-1H-indazol-3-yl)piperidine-2,6-dione]
Percent BCL6 remaining at maximal degradation (Ycon): > 60%

Structure (SMILES): Cn1nc(C2CCC(=O)NC2=O)c2ccc(N3CCC(Nc4ncc(Cl)c(Nc5ccc6c(c5)N(CCC(C)(C)O)C(=O)C6)n4)CC3)cc21 (stereo not shown) [Example 8, 3-(6-(4-((5-chloro-4-((1-(3-hydroxy-3-methylbutyl)-2-oxoindolin-6-yl)amino)pyrimidin-2-yl)amino)piperidin-1-yl)-1-methyl-1H-indazol-3-yl)piperidine-2,6-dione]
Percent BCL6 remaining at maximal degradation (Ycon): > 60%

Structure (SMILES): CN1C(=O)Cc2cc(Nc3nc(N(C)C4CC5CCC(C4)N5c4ccc5c(C6CCC(=O)NC6=O)nn(C)c5c4)ncc3Cl)ccc21 [Example 15, 3-(6-((1R,3s,5S)-3-((5-chloro-4-((1-methyl-2-oxoindolin-5-yl)amino)pyrimidin-2-yl)(methyl)amino)-8-azabicyclo[3.2.1]octan-8-yl)-1-methyl-1H-indazol-3-yl)piperidine-2,6-dione]
Percent BCL6 remaining at maximal degradation (Ycon): > 60%

Structure (SMILES): CN1C(=O)Cc2cc(Nc3nc(N(C)[C@H]4C[C@H]5CC[C@@H](C4)N5c4ccc5c(C6CCC(=O)NC6=O)nn(C)c5c4)ncc3Cl)ccc21 (stereo partly drawn) [Example 16, 3-(6-((1R,3r,5S)-3-((5-chloro-4-((1-methyl-2-oxoindolin-yl)amino)pyrimidin-2-yl)(methyl)amino)-8-azabicyclo[3.2.1]octan-8-yl)-1-methyl-1H-indazol-3-yl)piperidine-2,6-dione]
Percent BCL6 remaining at maximal degradation (Ycon): 20 to 60%

More lines, now with the values ahead:

Percent BCL6 remaining at maximal degradation (Ycon): < 20%
Structure (SMILES): CN1C(=O)Cc2cc(Nc3nc(N(C)[C@@H]4CCN(c5ccc6c(C7CCC(=O)NC7=O)nn(C)c6c5)C(=O)C4)ncc3Cl)ccc21 (single isomer, unassigned) [Example 129]

Percent BCL6 remaining at maximal degradation (Ycon): > 60%
Structure (SMILES): C[C@H]1C(=O)N(c2ccc3c(C4CCC(=O)NC4=O)nn(C)c3c2)CC[C@@H]1N(C)c1ncc(Cl)c(Nc2ccc3c(c2)CC(=O)N3C)n1 (single isomer, unassigned) [Example 130]

Percent BCL6 remaining at maximal degradation (Ycon): < 20%
Structure (SMILES): C[C@@H]1C(=O)N(c2ccc3c(C4CCC(=O)NC4=O)nn(C)c3c2)CC[C@H]1N(C)c1ncc(Cl)c(Nc2ccc3c(c2)CC(=O)N3C)n1 (single isomer, unassigned) [Example 131]

Percent BCL6 remaining at maximal degradation (Ycon): > 60%
Structure (SMILES): CN1C(=O)Cc2cc(Nc3nc(N4CC[C@@H](Nc5ccc6c(C7CCC(=O)NC7=O)nn(C)c6c5)[C@@H](C(F)(F)F)C4)ncc3Cl)ccc21 (single isomer, unassigned) [Example 148]

Percent BCL6 remaining at maximal degradation (Ycon): > 60%
Structure (SMILES): Cn1nc(C2CCC(=O)NC2=O)c2ccc(NC3CCN(c4ncc(Cl)c(Nc5ccc6c(c5)N(CCC(C)(C)O)C(=O)C6)n4)CC3)cc21 (stereo not shown) [Example 9, 3-[6-[[1-[5-Chloro-4-[[1-(3-hydroxy-3-methyl-butyl)-2-oxo-indolin-6-yl]amino]pyrimidin-2-yl]-4-piperidyl]amino]-1-methyl-indazol-3-yl]piperidine-2,6-dione]

Percent BCL6 remaining at maximal degradation (Ycon): 20 to 60%
Structure (SMILES): CN(c1ccc2c(C3CCC(=O)NC3=O)nn(C)c2c1)C1CCN(c2ncc(Cl)c(Nc3ccc4c(c3)N(CCC(C)(C)O)C(=O)C4)n2)CC1 (stereo not shown) [Example 10, 3-(6-((1-(5-chloro-4-((1-(3-hydroxy-3-methylbutyl)-2-oxoindolin-6-yl)amino)pyrimidin-2-yl)piperidin-4-yl)(methyl)amino)-1-methyl-1H-indazol-3-yl)piperidine-2,6-dione]

Percent BCL6 remaining at maximal degradation (Ycon): > 60%
Structure (SMILES): CN(c1ncc(Cl)c(Nc2ccc3c(c2)N(CCC(C)(C)O)C(=O)C3)n1)C1CCN(c2ccc3c(C4CCC(=O)NC4=O)nn(C)c3c2)CC1 (stereo not shown) [Example 11, 3-(6-(4-((5-chloro-4-((1-(3-hydroxy-3-methylbutyl)-2-oxoindolin-6-yl)amino)pyrimidin-2-yl)(methyl)amino)piperidin-1-yl)-1-methyl-1H-indazol-3-yl)piperidine-2,6-dione]

Percent BCL6 remaining at maximal degradation (Ycon): < 20%
Structure (SMILES): C[C@@H]1CN(c2ncc(Cl)c(Nc3ccc4c(c3)CC(=O)N4C)n2)CC[C@@H]1Nc1ccc2c(C3CCC(=O)NC3=O)nn(C)c2c1 (stereo partly drawn) [Example 12, 3-(6-{[(3R,4S)-1-{5-chloro-4-[(1-methyl-2-oxo-2,3-dihydro-1H-indol-5-yl)amino]pyrimidin-2-yl}-3-methylpiperidin-4-yl]amino}-1-methyl-1H-indazol-3-yl)piperidine-2,6-dione]

Percent BCL6 remaining at maximal degradation (Ycon): > 60%
Structure (SMILES): C[C@H]1CN(c2ncc(Cl)c(Nc3ccc4c(c3)CC(=O)N4C)n2)CC[C@H]1Nc1ccc2c(C3CCC(=O)NC3=O)nn(C)c2c1 (stereo partly drawn) [Example 13, 3-(6-(((3S,4R)-1-(5-chloro-4-((1-methyl-2-oxoindolin-5-yl)amino)pyrimidin-2-yl)-3-methylpiperidin-4-yl)amino)-1-methyl-1H-indazol-3-yl)piperidine-2,6-dione]

Percent BCL6 remaining at maximal degradation (Ycon): > 60%
Structure (SMILES): C[C@H]1CN(c2ncc(Cl)c(Nc3ccc4c(c3)CC(=O)N4C)n2)CC[C@@H]1Nc1ccc2c(C3CCC(=O)NC3=O)nn(C)c2c1 (stereo partly drawn) [Example 14, 3-(6-(((3S,4S)-1-(5-chloro-4-((1-methyl-2-oxoindolin-5-yl)amino)pyrimidin-2-yl)-3-methylpiperidin-4-yl)amino)-1-methyl-1H-indazol-3-yl)piperidine-2,6-dione]

Percent BCL6 remaining at maximal degradation (Ycon): > 60%
Structure (SMILES): CN1C(=O)Cc2cc(Nc3nc(N4CCN(Cc5ccc6c(C7CCC(=O)NC7=O)nn(C)c6c5)CC4)ncc3Cl)ccc21 (stereo not shown) [Example 17, 3-(6-((4-(5-chloro-4-((1-methyl-2-oxoindolin-5-yl)amino)pyrimidin-2-yl)piperazin-1-yl)methyl)-1-methyl-1H-indazol-3-yl)piperidine-2,6-dione]

Percent BCL6 remaining at maximal degradation (Ycon): > 60%
Structure (SMILES): Cn1nc(C2CCC(=O)NC2=O)c2ccc(NC3CCN(c4ncc(Cl)c(Nc5ccc6c(c5)CC(=O)N6CC(F)(F)F)n4)CC3)cc21 (stereo not shown) [Example 18, 3-(6-((1-(5-chloro-4-((2-oxo-1-(2,2,2-trifluoroethyl)indolin-5-yl)amino)pyrimidin-2-yl)piperidin-4-yl)amino)-1-methyl-1H-indazol-3-yl)piperidine-2,6-dione]
